Columns and labels:
[1] = biological target: SAPK3 (Homo sapiens, UniProt P53778); experiment: In vitro kinase inhibition screen; type: biochemical
Experimental: (§1) Further screening was performed using the biochemical assay methods of Example 2. Additional description of the components and concentrations are summarized in Table 8, Table 9, and Table 10, below.

[2] = biological target: Rsk3 (Homo sapiens, UniProt Q15349); experiment: In vitro kinase inhibition screen; type: biochemical
Experimental: as §1

[3] = biological target: PKBβ (Homo sapiens, UniProt P31751); experiment: In vitro kinase inhibition screen; type: biochemical
Experimental: as §1

[4] = biological target: PKC-γ (Homo sapiens, UniProt P05129); experiment: In vitro kinase inhibition screen; type: biochemical
Experimental: as §1

[5] = biological target: JNK1α (Homo sapiens, UniProt P45983); experiment: In vitro kinase inhibition screen; type: biochemical
Experimental: as §1

[6] = biological target: PDGFR-α (Homo sapiens, UniProt P16234); experiment: In vitro kinase inhibition screen; type: biochemical
Experimental: as §1

[7] = biological target: MAPK2 (Homo sapiens, UniProt P28482); experiment: In vitro kinase inhibition screen; type: biochemical
Experimental: as §1

[8] = In vitro kinase inhibition screen; type: biochemical
Experimental: as §1

[9] = biological target: CamKIV (Homo sapiens, UniProt Q16566); experiment: In vitro kinase inhibition screen; type: biochemical
Experimental: as §1

[10] = biological target: MAPKAP2 (Homo sapiens, UniProt P49137); experiment: In vitro kinase inhibition screen; type: biochemical
Experimental: as §1

[11] = biological target: MAPK1 (Homo sapiens, UniProt P27361); experiment: In vitro kinase inhibition screen; type: biochemical
Experimental: as §1

[12] = biological target: JNK3α (Homo sapiens, UniProt P53779); experiment: In vitro kinase inhibition screen; type: biochemical
Experimental: as §1

[13] = biological target: PKCα (Homo sapiens, UniProt P17252); experiment: In vitro kinase inhibition screen; type: biochemical
Experimental: as §1

[14] = biological target: CSK (Homo sapiens, UniProt P41240); experiment: In vitro kinase inhibition screen; type: biochemical
Experimental: as §1

[15] = biological target: AMPK; experiment: In vitro kinase inhibition screen; type: biochemical
Experimental: as §1

[16] = biological target: JNK2α (Homo sapiens, UniProt P45984); experiment: In vitro kinase inhibition screen; type: biochemical
Experimental: as §1

[17] = biological target: Fes (Homo sapiens, UniProt P07332); experiment: In vitro kinase inhibition screen; type: biochemical
Experimental: as §1

[18] = biological target: Lyn (Homo sapiens, UniProt P07948); experiment: In vitro kinase inhibition screen; type: biochemical
Experimental: as §1

[19] = biological target: ROCK II (Homo sapiens, UniProt O75116); experiment: In vitro kinase inhibition screen; type: biochemical
Experimental: as §1

[20] = biological target: MKK7β (Homo sapiens, UniProt O14733); experiment: In vitro kinase inhibition screen; type: biochemical
Experimental: as §1

[21] = biological target: T1, PKC-ξ; experiment: In vitro kinase inhibition screen; type: biochemical
T1 construct: PKC-eta; Human, PanVera
Experimental: as §1

[22] = biological target: CK2 (Homo sapiens, UniProt P68400); experiment: In vitro kinase inhibition screen; type: biochemical
Experimental: as §1

[23] = biological target: PDGFRβ (Homo sapiens, UniProt P09619); experiment: In vitro kinase inhibition screen; type: biochemical
Experimental: as §1

[24] = biological target: c-Raf (Homo sapiens, UniProt P04049); experiment: In vitro kinase inhibition screen; type: biochemical
Experimental: as §1

[25] = biological target: MAP4K5 (Homo sapiens, UniProt Q9Y4K4); experiment: In vitro kinase inhibition screen; type: biochemical
Experimental: as §1

[26] = biological target: MKK4 (Homo sapiens, UniProt P45985); experiment: In vitro kinase inhibition screen; type: biochemical
Experimental: as §1

[27] = biological target: CDK3 (Homo sapiens, UniProt Q00526); experiment: In vitro kinase inhibition screen; type: biochemical
Experimental: as §1

[28] = biological target: Blk (Homo sapiens, UniProt P51451); experiment: In vitro kinase inhibition screen; type: biochemical
Experimental: as §1

[29] = biological target: CDK6 (Homo sapiens, UniProt Q00534); experiment: In vitro kinase inhibition screen; type: biochemical
Experimental: as §1

[30] = biological target: CDK2 (Homo sapiens, UniProt P24941); experiment: In vitro kinase inhibition screen; type: biochemical
Experimental: as §1

[31] = human
[32] = biological target: T2, Muscarinic, M2 (Human Recombinant) (Homo sapiens, UniProt P08172); experiment: NovaScreen assay; type: binding
T2 construct: NovaScreen

[33] = tested on: Vasoactive Intestinal Peptide, Non-selective; experiment: NovaScreen assay; type: binding
[34] = biological target: c-Kit (Homo sapiens, UniProt P10721); experiment: AlphaScreen kinase assay; type: biochemical; design: Human, T544-; MgCl2, 3 mM MnCl2, 1 mM; V976, N-GST,; GST (N); purchased ProQinase
Experimental: An AlphaScreen tyrosine kinase assay was used to measure ErbB2 and Flt-4 activity. Donor beads coated with streptavidin and acceptor beads coated with PY100 anti-phosphotyrosine antibody (Perkin-Elmer) were used. Biotinylated poly(Glu,Tyr) 4:1 was used as the substrate. Substrate phosphorylation was measured by luminescence following donor-acceptor bead addition followed by complex formation. Test compound, 3 μmol/L ATP, 3 nmol/L biotinylated poly(Glu,Tyr) 4:1, and 1 nmol/L ErbB2 (residues Q679-V1255 of human ErbB2, Proqinase) or Flt-4 (residues D725-R1298 of human Flt-4, Proqinase) were combined in a volume of 20 μL Assay Buffer (20 mM TrisHCl, pH 7.5, 10 mM MgCl2, 3 mM MnCl2, 1 mM DTT, 0.01% Triton) in a 384-well white, medium-binding microtiter plate (Greiner). Reaction mixtures were incubated for 1 h at room temperature. Reactions were quenched by addition of 10 μL of 15 to 30 μg/mL AlphaScreen bead suspension containing 75 mmol/L HEPES (pH 7.4), 300 mmol/L NaCl, 120 mmol/L EDTA, 0.3% bovine serum albumin, and 0.03% Tween 20. After 2 to 16 h of incubation at room temperature, plates were read using an AlphaQuest reader (Perkin-Elmer).
as §1

T2 sequence (P08172 whole entry): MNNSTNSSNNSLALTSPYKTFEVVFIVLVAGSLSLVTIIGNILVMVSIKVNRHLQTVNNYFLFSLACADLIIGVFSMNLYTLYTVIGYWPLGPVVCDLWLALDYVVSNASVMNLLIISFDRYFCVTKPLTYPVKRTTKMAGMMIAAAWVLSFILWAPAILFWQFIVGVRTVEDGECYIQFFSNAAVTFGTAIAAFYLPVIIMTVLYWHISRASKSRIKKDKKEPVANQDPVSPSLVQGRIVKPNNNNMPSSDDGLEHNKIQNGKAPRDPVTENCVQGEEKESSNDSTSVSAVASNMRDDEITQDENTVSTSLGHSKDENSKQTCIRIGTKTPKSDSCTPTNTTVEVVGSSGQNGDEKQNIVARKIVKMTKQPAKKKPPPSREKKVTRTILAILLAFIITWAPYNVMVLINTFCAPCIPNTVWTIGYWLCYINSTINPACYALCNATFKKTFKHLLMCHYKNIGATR
JNK1α, sequence (P45983 whole entry): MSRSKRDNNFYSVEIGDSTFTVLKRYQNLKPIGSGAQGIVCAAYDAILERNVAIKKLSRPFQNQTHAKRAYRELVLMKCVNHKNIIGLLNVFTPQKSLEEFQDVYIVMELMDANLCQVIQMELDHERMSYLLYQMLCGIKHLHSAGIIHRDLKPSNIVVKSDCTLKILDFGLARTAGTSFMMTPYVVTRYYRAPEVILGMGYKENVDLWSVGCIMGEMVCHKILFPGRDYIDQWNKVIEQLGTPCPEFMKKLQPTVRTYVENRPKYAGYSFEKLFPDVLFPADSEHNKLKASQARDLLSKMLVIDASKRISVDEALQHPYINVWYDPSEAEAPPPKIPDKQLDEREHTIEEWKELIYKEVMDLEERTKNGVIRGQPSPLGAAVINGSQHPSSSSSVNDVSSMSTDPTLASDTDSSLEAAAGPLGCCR
MAPK1, sequence (P27361 whole entry): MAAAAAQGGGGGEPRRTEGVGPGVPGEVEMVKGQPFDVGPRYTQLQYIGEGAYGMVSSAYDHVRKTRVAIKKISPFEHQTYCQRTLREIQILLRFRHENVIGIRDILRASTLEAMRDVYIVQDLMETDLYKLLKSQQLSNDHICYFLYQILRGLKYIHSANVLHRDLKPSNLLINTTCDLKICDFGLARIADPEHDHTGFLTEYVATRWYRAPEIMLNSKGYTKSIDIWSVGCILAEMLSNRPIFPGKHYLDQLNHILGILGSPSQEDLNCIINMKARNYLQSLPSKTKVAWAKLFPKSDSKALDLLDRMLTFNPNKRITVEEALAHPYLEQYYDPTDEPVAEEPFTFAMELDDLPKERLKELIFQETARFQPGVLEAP
CDK3, sequence (Q00526 whole entry, species assumed): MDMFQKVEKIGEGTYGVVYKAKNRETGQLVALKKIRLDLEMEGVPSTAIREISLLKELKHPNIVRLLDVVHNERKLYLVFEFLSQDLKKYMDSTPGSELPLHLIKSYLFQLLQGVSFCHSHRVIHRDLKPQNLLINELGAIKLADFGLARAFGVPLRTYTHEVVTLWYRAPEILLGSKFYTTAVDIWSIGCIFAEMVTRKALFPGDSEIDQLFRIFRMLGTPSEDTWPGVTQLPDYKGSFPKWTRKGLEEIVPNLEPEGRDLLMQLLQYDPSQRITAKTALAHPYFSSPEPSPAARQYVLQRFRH
CDK3, sequence (P24864 whole entry partner, species assumed): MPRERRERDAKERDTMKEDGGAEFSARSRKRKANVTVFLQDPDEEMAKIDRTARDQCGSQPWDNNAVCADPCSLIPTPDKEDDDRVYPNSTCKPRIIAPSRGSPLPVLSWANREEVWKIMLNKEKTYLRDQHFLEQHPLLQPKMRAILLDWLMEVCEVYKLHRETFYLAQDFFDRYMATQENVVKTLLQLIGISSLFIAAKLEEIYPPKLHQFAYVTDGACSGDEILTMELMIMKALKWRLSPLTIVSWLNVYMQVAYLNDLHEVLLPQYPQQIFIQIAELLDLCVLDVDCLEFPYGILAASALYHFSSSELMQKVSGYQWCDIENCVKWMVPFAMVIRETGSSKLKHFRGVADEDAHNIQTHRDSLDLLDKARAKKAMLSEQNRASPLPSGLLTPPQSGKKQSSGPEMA
CSK, sequence (P41240 whole entry, species assumed): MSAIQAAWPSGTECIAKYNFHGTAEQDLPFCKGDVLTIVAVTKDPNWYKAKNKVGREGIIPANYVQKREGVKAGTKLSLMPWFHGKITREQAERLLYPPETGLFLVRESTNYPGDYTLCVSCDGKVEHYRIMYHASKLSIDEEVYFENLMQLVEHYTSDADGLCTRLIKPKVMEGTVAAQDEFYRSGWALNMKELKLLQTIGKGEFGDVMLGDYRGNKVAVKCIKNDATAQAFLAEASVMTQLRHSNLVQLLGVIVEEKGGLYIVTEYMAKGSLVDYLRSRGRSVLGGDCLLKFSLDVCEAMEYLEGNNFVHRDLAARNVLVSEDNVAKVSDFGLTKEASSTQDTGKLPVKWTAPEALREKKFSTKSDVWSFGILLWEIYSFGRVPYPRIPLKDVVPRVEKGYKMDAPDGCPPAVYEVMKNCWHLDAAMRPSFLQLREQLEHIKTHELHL
JNK3α, sequence (P53779 whole entry): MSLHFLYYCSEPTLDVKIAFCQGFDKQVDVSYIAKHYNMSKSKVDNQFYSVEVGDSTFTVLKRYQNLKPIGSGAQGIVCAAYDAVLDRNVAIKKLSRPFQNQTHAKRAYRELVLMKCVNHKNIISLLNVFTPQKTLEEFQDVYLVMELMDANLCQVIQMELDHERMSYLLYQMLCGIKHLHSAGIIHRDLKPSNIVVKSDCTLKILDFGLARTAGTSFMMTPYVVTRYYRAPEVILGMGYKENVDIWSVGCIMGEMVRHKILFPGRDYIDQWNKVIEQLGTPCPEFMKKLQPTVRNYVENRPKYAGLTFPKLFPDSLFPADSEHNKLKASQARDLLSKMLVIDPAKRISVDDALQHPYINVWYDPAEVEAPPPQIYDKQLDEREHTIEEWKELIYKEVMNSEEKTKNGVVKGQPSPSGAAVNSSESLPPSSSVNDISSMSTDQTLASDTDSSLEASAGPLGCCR
c-Raf, sequence (P04049 whole entry, species assumed): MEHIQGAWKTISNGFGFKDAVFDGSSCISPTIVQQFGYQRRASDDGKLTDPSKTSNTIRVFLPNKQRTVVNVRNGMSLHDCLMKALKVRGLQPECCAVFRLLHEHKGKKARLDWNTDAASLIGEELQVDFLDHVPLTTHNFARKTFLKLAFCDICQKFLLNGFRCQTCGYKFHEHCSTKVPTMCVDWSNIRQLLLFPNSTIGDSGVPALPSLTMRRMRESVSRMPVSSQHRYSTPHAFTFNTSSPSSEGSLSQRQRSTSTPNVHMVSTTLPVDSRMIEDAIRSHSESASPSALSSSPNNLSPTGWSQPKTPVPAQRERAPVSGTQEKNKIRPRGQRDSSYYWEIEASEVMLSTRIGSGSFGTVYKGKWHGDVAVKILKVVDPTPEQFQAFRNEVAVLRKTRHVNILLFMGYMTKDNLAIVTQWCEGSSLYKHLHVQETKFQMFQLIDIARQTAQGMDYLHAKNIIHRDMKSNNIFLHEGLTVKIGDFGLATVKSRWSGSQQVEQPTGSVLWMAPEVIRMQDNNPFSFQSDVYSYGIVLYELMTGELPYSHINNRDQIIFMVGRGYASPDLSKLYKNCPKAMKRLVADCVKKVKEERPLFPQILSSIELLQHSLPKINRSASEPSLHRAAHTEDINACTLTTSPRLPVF
ROCK II, sequence (O75116 whole entry): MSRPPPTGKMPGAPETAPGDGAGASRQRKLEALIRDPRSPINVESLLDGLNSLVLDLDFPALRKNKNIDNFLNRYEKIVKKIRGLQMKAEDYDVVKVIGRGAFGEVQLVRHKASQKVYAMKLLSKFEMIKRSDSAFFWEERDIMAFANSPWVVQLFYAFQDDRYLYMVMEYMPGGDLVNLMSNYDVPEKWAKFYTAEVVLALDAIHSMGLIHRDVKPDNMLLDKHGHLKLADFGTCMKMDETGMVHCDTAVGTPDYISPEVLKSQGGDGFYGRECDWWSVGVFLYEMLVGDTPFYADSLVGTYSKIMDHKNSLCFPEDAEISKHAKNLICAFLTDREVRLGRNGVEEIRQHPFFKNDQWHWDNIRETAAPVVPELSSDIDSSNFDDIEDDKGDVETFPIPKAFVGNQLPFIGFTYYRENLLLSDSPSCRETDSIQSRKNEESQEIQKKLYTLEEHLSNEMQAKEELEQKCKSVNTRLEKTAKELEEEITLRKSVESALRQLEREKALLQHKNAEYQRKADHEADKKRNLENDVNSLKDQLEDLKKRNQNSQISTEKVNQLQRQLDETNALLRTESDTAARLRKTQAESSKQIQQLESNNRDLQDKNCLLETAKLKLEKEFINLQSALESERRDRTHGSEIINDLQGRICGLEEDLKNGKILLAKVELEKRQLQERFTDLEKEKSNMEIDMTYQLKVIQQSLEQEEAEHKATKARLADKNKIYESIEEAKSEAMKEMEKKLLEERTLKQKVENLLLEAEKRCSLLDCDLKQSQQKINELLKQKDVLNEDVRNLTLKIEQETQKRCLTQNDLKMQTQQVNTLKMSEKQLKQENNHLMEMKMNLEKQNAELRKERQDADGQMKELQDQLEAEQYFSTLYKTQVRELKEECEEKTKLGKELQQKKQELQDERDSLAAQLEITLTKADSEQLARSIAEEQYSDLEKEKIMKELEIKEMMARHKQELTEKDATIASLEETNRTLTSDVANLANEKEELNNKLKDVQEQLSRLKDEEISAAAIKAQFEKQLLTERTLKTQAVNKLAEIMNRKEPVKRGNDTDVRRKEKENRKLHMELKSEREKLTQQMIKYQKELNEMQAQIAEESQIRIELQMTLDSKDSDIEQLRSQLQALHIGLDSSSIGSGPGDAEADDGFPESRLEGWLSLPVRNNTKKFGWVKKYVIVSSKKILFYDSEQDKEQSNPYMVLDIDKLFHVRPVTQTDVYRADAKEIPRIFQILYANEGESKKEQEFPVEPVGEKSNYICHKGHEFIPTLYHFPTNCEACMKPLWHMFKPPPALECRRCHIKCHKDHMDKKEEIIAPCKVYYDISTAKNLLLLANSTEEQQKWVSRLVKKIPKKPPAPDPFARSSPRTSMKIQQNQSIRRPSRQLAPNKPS

Q: With `COc1cc2c(Nc3ccc(Cl)c(Cl)c3F)ncnc2cc1OC[C@@H]1C[C@@H]2CN(C)C[C@@H]2C1` [XL-647, N-(3,4-dichloro-2-fluorophenyl)-7-({[(3aR,5r,6aS)-2-methyloctahydrocyclopenta[c]pyrrol-5-yl]methyl}oxy)-6-(methyloxy)quinazolin-4-amine] as the compound, how does the IC50 [1] read?
A: > 1000 nM

Q: And the IC50 [2]?
A: > 1000 nM

Q: What about the IC50 [3] of the same compound?
A: > 10000 nM

Q: And the IC50 [4]?
A: > 10000 nM

Q: What about the IC50 [5] of the same compound?
A: > 1000 nM

Q: And the IC50 [6]?
A: 64.4 ± 7.2 nM

Q: And the IC50 [7]?
A: > 1000 nM

Q: What about the IC50 [8] of the same compound?
A: > 1000 nM

Q: What about the IC50 [9] of the same compound?
A: > 1000 nM

Q: What about the IC50 [10] of the same compound?
A: > 10000 nM

Q: And the IC50 [11]?
A: > 1000 nM

Q: What about the IC50 [12] of the same compound?
A: > 1000 nM

Q: What about the IC50 [13] of the same compound?
A: > 10000 nM

Q: What about the IC50 [14] of the same compound?
A: 402 nM

Q: And the IC50 [15]?
A: > 1000 nM

Q: And the IC50 [16]?
A: > 1000 nM

Q: And the IC50 [17]?
A: 474 nM

Q: What about the IC50 [18] of the same compound?
A: 2 nM

Q: And the IC50 [19]?
A: > 1000 nM

Q: What about the IC50 [20] of the same compound?
A: > 1000 nM

Q: And the IC50 [21]?
A: > 10000 nM

Q: What about the IC50 [22] of the same compound?
A: > 1000 nM

Q: And the IC50 [23]?
A: 346 ± 37 nM

Q: And the IC50 [24]?
A: > 1000 nM

Q: What about the IC50 [25] of the same compound?
A: > 1000 nM

Q: And the IC50 [26]?
A: > 1000 nM

Q: And the IC50 [27]?
A: > 1000 nM

Q: What about the IC50 [28] of the same compound?
A: 15 nM

Q: And the IC50 [29]?
A: > 1000 nM

Q: And the IC50 [30]?
A: > 1000 nM

Q: What about the protein bound [31] of the same compound?
A: 93-99%

Q: What about the IC50 [32] of the same compound?
A: 1180 nM

Q: What about the inhibition at 10 µM ([32]; read-out: Inhibition, 10 μM XL-647) of the same compound?
A: 98.7%

Q: And the “Inhibition, 10 μM XL-647” value [33]?
A: 17.02%

Q: What about the IC50 [34] of the same compound?
A: 132 ± 8.2 nM

— patent publication US9364479B2, “Use of a receptor-type kinase modulator for treating polycystic kidney disease” (SYMPHONY EVOLUTION, INC., priority 2010, dated 2016)
